Results reported in patent publication US10681909B2, “Herbicidal triazoles” (FMC Corporation, priority 2014, dated 2020).

How the values were obtained:
barnyardgrass [1] = test: Test A postemergence; format: in vivo, Echinochloa crus-galli; settings: 0 to 100 scale (0 no effect, 100 complete control), approx. 10 d
Procedure, shortened: (§1)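 Loam/sand soil mix; compound in non-phytotoxic solvent + surfactant. Pre: directed soil spray right after planting seed. Post: potted plants 2–10 cm, 1–2 leaf stage, sprayed with same formulation.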

foxtail, giant [2] = test: Test A postemergence; format: in vivo, Setaria faberii; settings: 0 to 100 scale (0 no effect, 100 complete control), approx. 10 d
Procedure, shortened: as §1

pigweed [3] = test: Test A postemergence; format: in vivo, Amaranthus retroflexus; settings: 0 to 100 scale (0 no effect, 100 complete control), approx. 10 d
Procedure, shortened: as §1

corn [4] = test: Test A postemergence; format: in vivo, Zea mays; settings: 0 to 100 scale (0 no effect, 100 complete control), approx. 10 d
Procedure, shortened: as §1

rice = test: Test B flooded paddy test; format: in vivo, Oryza sativa; settings: 250 g ai/ha, applied to paddy water at 2-leaf stage, visual rating after 13 to 15 d, scale 0 (no effect) to 100 (complete control)
Procedure, shortened: (§2)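 Pots were flooded to 3 cm above the soil at treatment, and compounds were applied directly into the paddy water. That depth was held throughout. After 13 to 15 d in a greenhouse, plants were rated visually against untreated controls.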

sedge, umbrella = test: Test B flooded paddy test; format: in vivo, Cyperus difformis; settings: 250 g ai/ha, applied to paddy water at 2-leaf stage, visual rating after 13 to 15 d, scale 0 (no effect) to 100 (complete control)
Procedure, shortened: as §2

ducksalad = test: Test B flooded paddy test; format: in vivo, Heteranthera limosa; settings: 250 g ai/ha, applied to paddy water at 2-leaf stage, visual rating after 13 to 15 d, scale 0 (no effect) to 100 (complete control)
Procedure, shortened: as §2

barnyardgrass [5] = test: Test B flooded paddy test; format: in vivo, Echinochloa crus-galli; settings: 250 g ai/ha, applied to paddy water at 2-leaf stage, visual rating after 13 to 15 d, scale 0 (no effect) to 100 (complete control)
Procedure, shortened: as §2

ryegrass, Italian = test: Test C postemergence; format: in vivo, Lolium multiflorum
Procedure, shortened: (§3)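 Plants are treated postemergence at the 1- to 4-leaf stage (2 to 18 cm), grown in sphagnum peat/vermiculite medium; preemergence treatment is applied to seed planted in loam soil with sand. Both use test chemical in a non-phytotoxic solvent mixture with surfactant.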

wheat (winter wheat) = test: Test C postemergence; format: in vivo, Triticum aestivum
Procedure, shortened: as §3

galium = test: Test C postemergence; format: in vivo, Galium aparine
Procedure, shortened: as §3

corn [6] = test: Test C postemergence; format: in vivo, Zea mays
Procedure, shortened: as §3

foxtail, giant [7] = test: Test C postemergence; format: in vivo, Setaria faberii
Procedure, shortened: as §3

johnsongrass = test: Test C postemergence; format: in vivo, Sorghum halepense
Procedure, shortened: as §3

lambsquarters = test: Test C postemergence; format: in vivo, Chenopodium album
Procedure, shortened: as §3

nutsedge, yellow = test: Test C postemergence; format: in vivo, Cyperus esculentus
Procedure, shortened: as §3

pigweed [8] = test: Test C postemergence; format: in vivo, Amaranthus retroflexus
Procedure, shortened: as §3

ragweed = test: Test C postemergence; format: in vivo, Ambrosia elatior
Procedure, shortened: as §3

oilseed rape = test: Test C postemergence; format: in vivo, Brassica napus
Procedure, shortened: as §3

chickweed = test: Test C postemergence; format: in vivo, Stellaria media
Procedure, shortened: as §3

oat, wild = test: Test C postemergence; format: in vivo, Avena fatua
Procedure, shortened: as §3

CCCOc1nc(-c2ccccc2)nn1Cc1ccnc(C(F)(F)F)c1 [Compound 33]
Plant response rating, Barnyardgrass (barnyardgrass [1]; 125 g ai/ha): 20
Plant response rating, Barnyardgrass (barnyardgrass [1]; 500 g ai/ha): 50
Plant response rating, Foxtail, Giant (foxtail, giant [2]; 125 g ai/ha): 40
Plant response rating, Foxtail, Giant (foxtail, giant [2]; 500 g ai/ha): 90
Plant response rating, Pigweed (pigweed [3]; 125 g ai/ha): 100
Plant response rating, Pigweed (pigweed [3]; 500 g ai/ha): 100
Plant response rating, Corn (corn [4]; 125 g ai/ha): 20
Plant response rating, Corn (corn [4]; 500 g ai/ha): 30
Plant response rating, Rice, Flood (rice): 0
Plant response rating, Sedge, Umbrella, Flood (sedge, umbrella): 85
Plant response rating, Ducksalad, Flood (ducksalad): 30
Plant response rating, Barnyardgrass, Flood (barnyardgrass [5]): 0
Plant response rating (scale of 0 to 100 where 0 is no effect and 100 is complete control) (ryegrass, Italian; 31 g ai/ha): 0
Plant response rating (scale of 0 to 100 where 0 is no effect and 100 is complete control) (ryegrass, Italian; 62 g ai/ha): 5
Plant response rating (scale of 0 to 100 where 0 is no effect and 100 is complete control) (ryegrass, Italian; 125 g ai/ha): 5
Plant response rating (scale of 0 to 100 where 0 is no effect and 100 is complete control) (ryegrass, Italian; 250 g ai/ha): 15
Plant response rating (scale of 0 to 100 where 0 is no effect and 100 is complete control) (wheat (winter wheat); 31 g ai/ha): 5
Plant response rating (scale of 0 to 100 where 0 is no effect and 100 is complete control) (wheat (winter wheat); 62 g ai/ha): 5
Plant response rating (scale of 0 to 100 where 0 is no effect and 100 is complete control) (wheat (winter wheat); 125 g ai/ha): 5
Plant response rating (scale of 0 to 100 where 0 is no effect and 100 is complete control) (wheat (winter wheat); 250 g ai/ha): 5
Plant response rating (scale of 0 to 100 where 0 is no effect and 100 is complete control) (galium; 31 g ai/ha): 55
Plant response rating (scale of 0 to 100 where 0 is no effect and 100 is complete control) (galium; 62 g ai/ha): 60
Plant response rating (scale of 0 to 100 where 0 is no effect and 100 is complete control) (galium; 125 g ai/ha): 75
Plant response rating (scale of 0 to 100 where 0 is no effect and 100 is complete control) (galium; 250 g ai/ha): 80
Plant response rating (scale of 0 to 100 where 0 is no effect and 100 is complete control) (corn [6]; 31 g ai/ha): 25
Plant response rating (scale of 0 to 100 where 0 is no effect and 100 is complete control) (corn [6]; 62 g ai/ha): 30
Plant response rating (scale of 0 to 100 where 0 is no effect and 100 is complete control) (corn [6]; 125 g ai/ha): 25
Plant response rating (scale of 0 to 100 where 0 is no effect and 100 is complete control) (corn [6]; 250 g ai/ha): 25
Plant response rating (scale of 0 to 100 where 0 is no effect and 100 is complete control) (foxtail, giant [7]; 31 g ai/ha): 10
Plant response rating (scale of 0 to 100 where 0 is no effect and 100 is complete control) (foxtail, giant [7]; 62 g ai/ha): 10
Plant response rating (scale of 0 to 100 where 0 is no effect and 100 is complete control) (foxtail, giant [7]; 125 g ai/ha): 15
Plant response rating (scale of 0 to 100 where 0 is no effect and 100 is complete control) (foxtail, giant [7]; 250 g ai/ha): 15
Plant response rating (scale of 0 to 100 where 0 is no effect and 100 is complete control) (johnsongrass; 31 g ai/ha): 5
Plant response rating (scale of 0 to 100 where 0 is no effect and 100 is complete control) (johnsongrass; 62 g ai/ha): 5
Plant response rating (scale of 0 to 100 where 0 is no effect and 100 is complete control) (johnsongrass; 125 g ai/ha): 10
Plant response rating (scale of 0 to 100 where 0 is no effect and 100 is complete control) (johnsongrass; 250 g ai/ha): 15
Plant response rating (scale of 0 to 100 where 0 is no effect and 100 is complete control) (lambsquarters; 31 g ai/ha): 80
Plant response rating (scale of 0 to 100 where 0 is no effect and 100 is complete control) (lambsquarters; 62 g ai/ha): 85
Plant response rating (scale of 0 to 100 where 0 is no effect and 100 is complete control) (lambsquarters; 125 g ai/ha): 85
Plant response rating (scale of 0 to 100 where 0 is no effect and 100 is complete control) (lambsquarters; 250 g ai/ha): 90
Plant response rating (scale of 0 to 100 where 0 is no effect and 100 is complete control) (nutsedge, yellow; 31 g ai/ha): 5
Plant response rating (scale of 0 to 100 where 0 is no effect and 100 is complete control) (nutsedge, yellow; 62 g ai/ha): 10
Plant response rating (scale of 0 to 100 where 0 is no effect and 100 is complete control) (nutsedge, yellow; 125 g ai/ha): 10
Plant response rating (scale of 0 to 100 where 0 is no effect and 100 is complete control) (nutsedge, yellow; 250 g ai/ha): 15
Plant response rating (scale of 0 to 100 where 0 is no effect and 100 is complete control) (pigweed [8]; 31 g ai/ha): 95
Plant response rating (scale of 0 to 100 where 0 is no effect and 100 is complete control) (pigweed [8]; 62 g ai/ha): 90
Plant response rating (scale of 0 to 100 where 0 is no effect and 100 is complete control) (pigweed [8]; 125 g ai/ha): 98
Plant response rating (scale of 0 to 100 where 0 is no effect and 100 is complete control) (pigweed [8]; 250 g ai/ha): 98
Plant response rating (scale of 0 to 100 where 0 is no effect and 100 is complete control) (ragweed; 31 g ai/ha): 35
Plant response rating (scale of 0 to 100 where 0 is no effect and 100 is complete control) (ragweed; 62 g ai/ha): 35
Plant response rating (scale of 0 to 100 where 0 is no effect and 100 is complete control) (ragweed; 125 g ai/ha): 40
Plant response rating (scale of 0 to 100 where 0 is no effect and 100 is complete control) (ragweed; 250 g ai/ha): 75
Plant response rating (scale of 0 to 100 where 0 is no effect and 100 is complete control) (oilseed rape; Oilsee Rape, 250 g ai/ha): 60
Plant response rating (scale of 0 to 100 where 0 is no effect and 100 is complete control) (oilseed rape; Oilseed Rape, 31 g ai/ha): 40
Plant response rating (scale of 0 to 100 where 0 is no effect and 100 is complete control) (oilseed rape; Oilseed Rape, 62 g ai/ha): 55
Plant response rating (scale of 0 to 100 where 0 is no effect and 100 is complete control) (oilseed rape; Oilseed Rape, 125 g ai/ha): 80
Plant response rating (scale of 0 to 100 where 0 is no effect and 100 is complete control) (chickweed; 31 g ai/ha): 55
Plant response rating (scale of 0 to 100 where 0 is no effect and 100 is complete control) (chickweed; 62 g ai/ha): 60
Plant response rating (scale of 0 to 100 where 0 is no effect and 100 is complete control) (chickweed; 125 g ai/ha): 60
Plant response rating (scale of 0 to 100 where 0 is no effect and 100 is complete control) (chickweed; 250 g ai/ha): 80
Plant response rating (scale of 0 to 100 where 0 is no effect and 100 is complete control) (oat, wild; 31 g ai/ha): 10
Plant response rating (scale of 0 to 100 where 0 is no effect and 100 is complete control) (oat, wild; 62 g ai/ha): 10
Plant response rating (scale of 0 to 100 where 0 is no effect and 100 is complete control) (oat, wild; 125 g ai/ha): 20
Plant response rating (scale of 0 to 100 where 0 is no effect and 100 is complete control) (oat, wild; 250 g ai/ha): 25
